Laboratory results reported in PMC9266914, “Broad Spectrum Functional Activity of Structurally Related Monoanionic Au(III) Bis(Dithiolene) Complexes” (International Journal of Molecular Sciences, 2022).
Where two headings read alike, the source gives them in different places. Marks after values point to notes of the source that are not given here.

Assays:
P. berghei hepatic stage = experiment: In vitro activity against the hepatic stage of P. berghei infection (luciferase, Huh7 cells); format: cell-based, Plasmodium berghei; settings: for IC50: hepatic stage, Huh7 cells, 46 hpi
Experimental: (§1) The in vitro liver stage activity of gold complexes was assessed against P. berghei-infected Huh7 cells, as previously described. Briefly, Huh7 cells were cultured in RPMI-1640 medium supplemented with 10% (v/v) fetal bovine serum, 1% (v/v) penicillin/streptomycin, 1% (v/v) glutamine, 1% (v/v) non-essential amino acids and 10 mM HEPES. On the day prior to infection, Huh7 cells were seeded in 96-well plates at a density of approximately 3.1 × 10^4 cell/cm^2 and incubated at 37 °C, 5% CO2. Stock solutions of the complexes were initially prepared in DMSO and serially diluted in infection medium, i.e., culture medium supplemented with gentamicin (50 µg/mL) and fungizone (0.8 µg/mL), to obtain the test concentrations. As a control, DMSO was diluted in infection medium to a percentage that equals that of the highest compound concentrations tested. These dilutions were added to the cells in triplicates and incubated for 1 h at 37 °C, 5% CO2, after which 1 × 10^4 luciferase-expressing P. berghei sporozoites were added to each well. Plates were centrifuged at 1800× g for 5 min at room temperature and incubated for the duration of the assay. At 46 h post-infection (hpi), the impact of each compound concentration on cell viability was assessed by the Alamar Blue (Invitrogen, Buckinghamshire, UK) assay, according to the manufacturer’s recommendations. Infection was next assessed by bioluminescence, employing the Firefly Luciferase Assay Kit 2.0 (Biotium, Fremont, CA, USA), according to the manufacturer’s recommendations. For IC50 determination, nonlinear regression analysis was employed to fit the normalized results of the dose–response curves, using GraphPad Prism 8 (GraphPad software, La Jolla, CA, USA).

C. albicans SC5134 [1] = experiment: MIC determination, C. albicans; format: cell-based, Candida albicans; settings: RPMIG, 24 h, 35 °C
From the text: (§2) The bacterial strains Escherichia coli ATCC25922 and Staphylococcus aureus Newman were used in this work and maintained in Lennox Broth (LB) solid medium, composed of 10 g/L tryptone, 5 g/L yeast extract, 5 g/L NaCl and 20 g/L agar. The fungal strains Candida albicans SC5134 and C. glabrata CBS138 were used in this work and maintained in YPD solid medium, composed of 20 g/L glucose, 20 g/L peptone, 10 g/L yeast extract and 15 g/L agar. The strains were isolated from human infections.
(§3) The antimicrobial activity of the complexes towards the bacterial and fungal strains was assessed by the determination of the Minimal Inhibitory Concentration (MIC) of each complex towards the indicated microbial strains, based on standard methods, and as previously described. […] Serial 1:2 dilutions of stock solutions were prepared for each complex in Mueller–Hinton (MH) broth (Fluka Analytical) or RPMI-1640 medium (Sigma) supplemented with 20 g/L glucose and buffered with 0.165 M morpholinepropanesulphonic acid (RPMIG) to pH 7.0. Solutions prepared with MH were used for testing bacteria, while those prepared with RPMIG were used for testing fungi. For antibacterial activity assays, the final concentrations ranged from 250 to 0.24 μg/mL (when stock solution final concentration was 10 mg/mL), 125 μg/mL to 0.12 μg/mL (when stock solution final concentration was 5 mg/mL) and 62.5 to 0.06 μg/mL (when stock solution final concentration was 2.5 mg/mL). For antifungal assays, the final concentrations ranged from 125 μg/mL to 0.12 μg/mL (when stock solution final concentration was 10 mg/mL), 62.5 to 0.06 μg/mL (when stock solution final concentration was 5 mg/mL) and 31.25 to 0.03 μg/mL (when stock solution final concentration was 2.5 mg/mL). Then, 100 μL aliquots of adequately diluted bacterial suspensions of S. aureus Newman or E. coli ATCC 25922 were mixed with the MH serially diluted complexes aliquots to obtain 5 × 10^5 CFU/mL. In the case of fungi, cultures were diluted to obtain a final optical density of 0.025, measured at 530 nm (OD530). Bacterial suspensions were prepared from cultures grown for 5 h in MH broth at 37 °C and 250 rev·min^−1 and adequately diluted with fresh MH medium, while fungal suspensions were prepared from overnight cultures grown in YPD broth at 30 °C and 250 rev.min^−1 and diluted in buffered RPMIG. After 22 h of incubation at 37 °C (bacteria) or 24 h at 35 °C (fungi), the wells’ content was resuspended by pipetting and the OD640 (bacteria) or OD530 (fungi) were measured in a SPECTROstar Nano microplate reader (BMG Labtech).
(§4) At least three independent experiments were performed in duplicate for each complex under study. […] Positive (no complex) and negative controls (no inoculum) were performed for each experiment. The effect of 5% (V/V) DMSO on microbial growth was also assessed.

S. aureus Newman [2] = experiment: MIC determination, S. aureus; format: cell-based, Staphylococcus aureus; settings: MH broth, 22 h, 37 °C
From the text: as §2, §3, §4

[3] = system: OVCAR8 ovarian cancer cells; experiment: MTT cytotoxicity assay in OVCAR8 (cisplatin resistant) ovarian cancer cells; format: cell-based, human; settings: 48 h incubation
Experimental: (§5) Cells were exposed to increasing concentrations of the complexes (0.01–100 μM) for 24 and/or 48 h, at 37 °C. The IC50 values were calculated from dose–response curves using the colorimetric MTT assay. […] Most complexes presented a similar cytotoxicity profile compared to Auranofin, but higher activity compared to Cisplatin, and, most importantly, were active in the Cisplatin-resistant OVCAR8 cells (Table 2).
(§6) The cytotoxic activity of the complexes was evaluated in the A2780 (cisplatin sensitive) (Sigma-Aldrich) and OVCAR8 (cisplatin resistant) (ATCC) ovarian cancer cells. Cells were grown in RPMI-1640 medium (Gibco, Thermo Fisher) supplemented with 10% fetal bovine serum (FBS) and were maintained at 37 °C in a humidified atmosphere with 5% CO2. The complexes were initially dissolved in DMSO and then in culture medium to prepare serial dilutions in the range 10^−9–10^−4 M. After 24 and/or 48 h incubation the cellular viability was measured by the colorimetric MTT assay, as previously described.

E. coli ATCC25922 [4] = experiment: MIC determination, E. coli; format: cell-based, Escherichia coli; settings: MH broth, 22 h, 37 °C
From the text: as §2, §3, §4

C. glabrata CBS138 [5] = experiment: MIC determination, C. glabrata; format: cell-based, Candida glabrata; settings: RPMIG, 24 h, 35 °C
From the text: as §2, §3, §4

[6] = system: A2780 ovarian cancer cells; experiment: MTT cytotoxicity assay in A2780 (cisplatin sensitive) ovarian cancer cells; format: cell-based, human
Experimental: as §5, §6

Huh7 cells = experiment: Cell viability (cell confluency, Alamar Blue) of P. berghei-infected Huh7 cells; format: cell-based; settings: 5 µM, in words
Experimental: as §1

E. coli ATCC25922 [7] = system: E. coli ATCC25922; design: method as in PMID 32391537; settings: complexes starred as Complex 1 / Complex 2; cited from earlier work
C. glabrata CBS138 [8] = system: C. glabrata CBS138; design: method as in PMID 32391537; settings: complexes starred as Complex 1 / Complex 2; cited from earlier work
S. aureus Newman [9] = system: S. aureus Newman; design: method as in PMID 32391537; settings: complexes starred as Complex 1 / Complex 2; cited from earlier work
C. albicans SC5134 [10] = system: C. albicans SC5134; design: method as in PMID 32391537; settings: complexes starred as Complex 1 / Complex 2; cited from earlier work
[11] = system: A2780 ovarian cancer cells; design: method as in PMID 32391537; settings: MTT, starred values, cited from earlier work
[12] = system: zebrafish (Danio rerio) embryos; experiment: Acute toxicity (mortality) in zebrafish embryo; format: in vivo; settings: 72 hpf embryos, 0.1–10 μM, 48 h, in words
From the text: Toxicity is a major challenge for drug development and is the leading cause of drug failure. Consequently, the evaluation of the potential toxicity represents a critical step in the development of new drugs. In this context, the zebrafish embryo represents a notable in vivo vertebrate model for studying the toxic effects of chemical compounds due to the small size, robustness, multiple progenies from a single mating, chemical permeability, easiness of observation and maintenance under laboratory conditions. In addition, the close phylogeny of zebrafish and mammals, with highly conserved signaling pathways, makes this species increasingly used and ideal for performing toxicological studies. Therefore, we evaluated the complexes acute toxicity by measuring mortality of 72 h post-fertilization (hpf) zebrafish embryos when incubated with increasing concentrations of the Au(III) complexes for 48 h.
To test the toxicological effect of the gold (III) complexes, zebrafish (Danio rerio) embryos at developmental stage of 72 h post-fertilization (hpf) were exposed to different concentrations of the target complexes and mortality was assessed for 48 h of treatment. […]

[13] = 24 h incubation, read-out: IC50 A2780, 24 h
[14] = 48 h incubation, read-out: IC50 A2780, 48 h

Compound | activity against hepatic stage of P. berghei (positive control) (P. berghei hepatic stage; in words) | MIC C. albicans SC5134 (C. albicans SC5134 [1]) | MIC S. aureus Newman (S. aureus Newman [2]) | IC50 (P. berghei hepatic stage) | IC50 [3] | MIC E. coli ATCC25922 (E. coli ATCC25922 [4]) | MIC C. glabrata CBS138 (C. glabrata CBS138 [5]) | IC50 [6, 13] | IC50 [6, 14] | toxicity seen as lower cell confluency (Huh7 cells) | MIC E. coli ATCC25922 (E. coli ATCC25922 [7]) | MIC C. glabrata CBS138 (C. glabrata CBS138 [8]) | MIC S. aureus Newman (S. aureus Newman [9]) | MIC C. albicans SC5134 (C. albicans SC5134 [10]) | IC50 [11, 13] | IC50 [11, 14] | toxicity in zebrafish embryo [12]
O=C1C(O)=C([C@H]2CC[C@H](c3ccc(Cl)cc3)CC2)C(=O)c2ccccc21 [Atovaquone, reference compound] | nanomolar-ranged activity |  |  |  |  |  |  |  |  |  |  |  |  |  |  |  | 
CCn1c2c(sc1=[Se])[Se][Au-]1([Se]c3sc(=[Se])n(CC)c3[Se]1)[Se]2.c1ccc([P+](c2ccccc2)(c2ccccc2)c2ccccc2)cc1 [[P][AuSeEt(=Se)]] |  | >62.5 µg/mL | >125 mg/L | 0.518 ± 0.246 µM | 2.42 ± 1.52 µM | >125 mg/L | >62.5 mg/L | 3.96 ± 2.21 µM | 0.64 ± 0.19 µM |  |  |  |  |  |  |  | 
CCCn1c2c(sc1=[Se])[S][Au-]1([S]c3sc(=[Se])n(CCC)c3[S]1)[S]2.c1ccc([P+](c2ccccc2)(c2ccccc2)c2ccccc2)cc1 [[P][AuSPr(=Se)]] |  | 62.5 µg/mL | >125 mg/L | 0.6439 ± 0.00134 µM | 0.8 ± 0.18 µM | >125 mg/L | >62.5 mg/L | 0.62 ± 0.19 µM | 0.55 ± 0.41 µM | some degree of toxicity |  |  |  |  |  |  | 
CCCn1c2c(sc1=S)[S][Au-]1([S]c3sc(=S)n(CCC)c3[S]1)[S]2.c1ccc([P+](c2ccccc2)(c2ccccc2)c2ccccc2)cc1 [[P][AuSPr(=S)]] |  |  |  |  |  |  |  |  |  |  | >125 mg/L | >125 mg/L | >125 mg/L | >125 mg/L | 4.6 ± 1.15 µM | 0.52 ± 0.23 µM | 
CC[N+](CC)(CC)CC.CCn1c2c(sc1=S)[Se][Au-]1([Se]c3sc(=S)n(CC)c3[Se]1)[Se]2 [[N][AuSeEt(=S)]] |  | >62.5 µg/mL | 5.5 ± 0.3 mg/L |  | 29.4 ± 4.2 µM | >125 mg/L | 1.6 ± 0.8 mg/L | 19.2 ± 2.01 µM | 4.32 ± 1.17 µM |  |  |  |  |  |  |  | 
CCn1c2c(sc1=O)[S][Au-]1([S]c3sc(=O)n(CC)c3[S]1)[S]2.c1ccc([P+](c2ccccc2)(c2ccccc2)c2ccccc2)cc1 [[P][AuSEt(=O)]] |  | >62.5 µg/mL | >125 mg/L |  | 1.16 ± 0.21 µM | >125 mg/L | >62.5 mg/L | 0.86 ± 0.11 µM | 0.31 ± 0.1 µM | some degree of toxicity |  |  |  |  |  |  | more toxic than [P][AuSEt(=S)]
CCN1C(=C(C#N)C#N)SC2=C1[S][Au-]1([S]2)[S]C2=C([S]1)N(CC)C(=C(C#N)C#N)S2.CC[N+](CC)(CC)CC [[N][AuSEt(=C(CN)2)]] |  | >62.5 µg/mL | >125 mg/L |  | 1.48 ± 0.41 µM | >125 mg/L | >62.5 mg/L | 1.32 ± 0.2 µM | 0.17 µM | some degree of toxicity |  |  |  |  |  |  | more toxic than [N][AuSEt(=S)]
CCCn1c2c(sc1=S)[Se][Au-]1([Se]c3sc(=S)n(CCC)c3[Se]1)[Se]2.c1ccc([P+](c2ccccc2)(c2ccccc2)c2ccccc2)cc1 [[P][AuSePr(=S)]] |  | >125 µg/mL | >250 mg/L | 0.544 ± 0.0194 µM | 1.57 ± 0.43 µM | >250 mg/L | >125 mg/L | 0.91 ± 0.4 µM | 0.29 ± 0.1 µM |  |  |  |  |  |  |  | 
CC[N+](CC)(CC)CC.Cn1c2c(sc1=S)[S][Au-]1([S]c3sc(=S)n(C)c3[S]1)[S]2 [[N][AuSMe(=S)]] |  | >62.5 *** µg/mL | 4.4 ± 0.2 mg/L | 0.429 ± 0.0396 µM | 2.44 ± 0.78 µM | >250 mg/L | 2.9 ± 0.9 mg/L | 1.63 ± 0.4 µM | 0.11 µM | some degree of toxicity |  |  |  |  |  |  | 
